Assay results from paper PMC10520499, “Next step in the development of mesoprogestins: the preclinical profile of EC313” (Frontiers in Endocrinology, 2023).

Legend:
PR-B – NCoR = target: T1, PR-B – NCoR (Homo sapiens, UniProt P06401); test: PR-B – NCoR interaction, two-hybrid system; assay type: cell-based
T1 construct: expressed in transfected cells
Text: The active recruitment of the nuclear corepressor NCoR results in transcriptional inactivity of the PR. So, the potency of PR ligands to induce the interaction of PR with NCoR provides information on the antagonistic potency of the ligand. Therefore, the capacity of EC313 to induce the interaction of PR-B with the corepressor NCoR in comparison with reference ligands was studied. All test compounds except the receptor agonist Promegestone induced PR to interact with NCoR.
Figure 11 (A) PR-B interaction with NCoR using a two-hybrid assay. Dose response curve. […] (B) Liganded PR-Binteraction with c-SRC kinase. The data presented are from five independent experiments. Signals are represented as mean luminescence ± SD normalized to maximal promegestone activity equal to 100%.

T47D cells = test: Proliferation / arrest in Go/G1 in T47D cells; assay type: cell-based, human; set-up: key to Arrest in Go/G1: ↓/↑ - decreased/increased action of tested compounds.; ↓/↑ - decreased/increased action of tested compounds; conditions: Proliferation; T47D cells; statistical significance not always reached
[1] = test system: estrogen-primed endometrium of immature rabbits; test: McPhail assay, estrogen-primed rabbit endometrium; assay type: in vivo; conditions: for Score 2 for PR-agonistic activity / Score 2 for PR-antagonistic activity: dose giving McPhail score 2; for Score 2 for PR-antagonistic activity: concomitant progesterone (1 g/animal/day [sic] s.c.)
Description: The secretory transformation of estrogen-primed endometrium of immature rabbits indicates the strength of the progestagenic action on the endometrium of the chosen test compound. The simultaneous administration of test compounds with progesterone can indicate potential anti-progestagenic actions.
Female rabbits received daily s.c. injections of 5.0 µg 17β-Estradiol/per animal for 6 days leading to the proliferation of the endometrium. From day 7 to day 13 the animals received doses of vehicle, EC313 (1 to 30 mg/animal/day s.c) or progesterone. On day 14, the animals were sacrificed and the uteri were processed for histological evaluation and the secretory endometrial transformation was rated according to a modified McPhail score (1 – 4).
The rating scale ranges from 1 (no or very low secretory, transformation, or agonistic activity) to 4 (highest secretory, transformation, or agonistic activity). The McPhail score of 2 (median) was selected for the comparison. The antagonistic activity was measured by the concomitant administration of progesterone ([…] s.c.).

GR = target: T2, GR (Homo sapiens, UniProt P04150); test: GR transactivation (HELA, MMTV-LUC); assay type: cell-based; set-up: HELA cells line carrying endogenous glucocorticoid protein; endogenous in cells; host or cells: HELA, stably transfected with the reporter only; conditions: comparative transactivation profile; read-out: Potency, GR Antagonism
T2 sequence (P04150 1-777): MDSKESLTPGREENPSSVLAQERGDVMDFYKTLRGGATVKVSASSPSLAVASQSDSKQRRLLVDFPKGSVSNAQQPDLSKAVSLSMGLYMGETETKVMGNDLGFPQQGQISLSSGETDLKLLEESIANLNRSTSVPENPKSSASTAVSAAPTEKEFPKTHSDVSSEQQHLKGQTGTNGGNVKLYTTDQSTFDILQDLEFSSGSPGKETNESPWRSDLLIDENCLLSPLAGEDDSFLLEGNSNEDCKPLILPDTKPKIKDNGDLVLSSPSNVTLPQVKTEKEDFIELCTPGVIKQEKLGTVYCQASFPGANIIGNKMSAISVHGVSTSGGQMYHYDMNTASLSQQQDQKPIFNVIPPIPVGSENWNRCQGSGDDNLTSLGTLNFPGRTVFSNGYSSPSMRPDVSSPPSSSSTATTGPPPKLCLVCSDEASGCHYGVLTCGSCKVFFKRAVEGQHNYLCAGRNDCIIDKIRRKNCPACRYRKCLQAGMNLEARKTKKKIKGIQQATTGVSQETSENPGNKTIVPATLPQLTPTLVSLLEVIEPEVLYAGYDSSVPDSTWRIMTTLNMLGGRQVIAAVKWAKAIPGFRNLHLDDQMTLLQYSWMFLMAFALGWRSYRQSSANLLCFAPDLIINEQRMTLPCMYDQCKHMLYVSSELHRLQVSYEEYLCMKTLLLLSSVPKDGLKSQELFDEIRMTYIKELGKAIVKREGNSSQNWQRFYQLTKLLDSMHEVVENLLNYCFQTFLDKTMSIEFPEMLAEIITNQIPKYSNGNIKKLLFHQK
Description: HELA cells line carrying endogenous glucocorticoid protein were cultured in order to study gene expression on the transcriptional level under the influence of the tested compounds. The cells were transfected with reporter vector MMTV/LUC. To produce high protein overexpression, stable transfection was carried out. […] Agonist and antagonist properties of EC313 toward tested receptor GR were analyzed using luminescence detection.
In order to develop the transfection assay, plasmids were generated and isolated. Vector pGL4.36 coding the glucocorticoid receptor responsive element MMTV and firefly luciferase reporter vector [luc2P/Hygro] were used as a reporter system (pGL4.36-MMTV/LUC). The cells were transfected with reporter vector MMTV/LUC.
stable transfection with reporter vector was performed on a 6-well plate (0.5x10^6 cells per well) in culture medium (EMEM, 10% FBS, NEAA, sodium […], L-glutamine). Briefly, according to the transfection procedure, cells were passaged, and they grew in a culture medium containing an appropriate concentration of the antibiotic (Hygromycin 150 µg/mL). Resistance to Hygromycin gene, which had been transfected together with the reporter vector to the cells, only allowed positively transfected cells to grow in this medium. Therefore, growing cell clones were selected for further steps as stable transfectants.
After 24h incubation of cells with the tested compounds, luciferase activity was measured using VICTOR™ X Multilabel Plate Reader -Perkin Elmer.

Cyclin D1 promotor = test: Activation of Cyclin D1 promotor; assay type: cell-based, human; conditions: Other signal cascades
cycling guinea pigs = test: Ovulation inhibition in cycling guinea pigs; assay type: in vivo, guinea pig; conditions: cycle days 10-17
Description: Test compounds were administered once daily from cycle days 10-17 by s. c. injection using 0.2 mL vehicle (benzyl-benzoate/castor oil, ratio 1 + 4 v/v). The time of autopsy (day 18) was 24-48h after the expected ovulation at the end of the treatment cycle. This design permits the study of the effects of the tested compounds on the expected ovulation. Fresh CL were evidence of a recent ovulation.

T1 sequence (P06401 whole entry): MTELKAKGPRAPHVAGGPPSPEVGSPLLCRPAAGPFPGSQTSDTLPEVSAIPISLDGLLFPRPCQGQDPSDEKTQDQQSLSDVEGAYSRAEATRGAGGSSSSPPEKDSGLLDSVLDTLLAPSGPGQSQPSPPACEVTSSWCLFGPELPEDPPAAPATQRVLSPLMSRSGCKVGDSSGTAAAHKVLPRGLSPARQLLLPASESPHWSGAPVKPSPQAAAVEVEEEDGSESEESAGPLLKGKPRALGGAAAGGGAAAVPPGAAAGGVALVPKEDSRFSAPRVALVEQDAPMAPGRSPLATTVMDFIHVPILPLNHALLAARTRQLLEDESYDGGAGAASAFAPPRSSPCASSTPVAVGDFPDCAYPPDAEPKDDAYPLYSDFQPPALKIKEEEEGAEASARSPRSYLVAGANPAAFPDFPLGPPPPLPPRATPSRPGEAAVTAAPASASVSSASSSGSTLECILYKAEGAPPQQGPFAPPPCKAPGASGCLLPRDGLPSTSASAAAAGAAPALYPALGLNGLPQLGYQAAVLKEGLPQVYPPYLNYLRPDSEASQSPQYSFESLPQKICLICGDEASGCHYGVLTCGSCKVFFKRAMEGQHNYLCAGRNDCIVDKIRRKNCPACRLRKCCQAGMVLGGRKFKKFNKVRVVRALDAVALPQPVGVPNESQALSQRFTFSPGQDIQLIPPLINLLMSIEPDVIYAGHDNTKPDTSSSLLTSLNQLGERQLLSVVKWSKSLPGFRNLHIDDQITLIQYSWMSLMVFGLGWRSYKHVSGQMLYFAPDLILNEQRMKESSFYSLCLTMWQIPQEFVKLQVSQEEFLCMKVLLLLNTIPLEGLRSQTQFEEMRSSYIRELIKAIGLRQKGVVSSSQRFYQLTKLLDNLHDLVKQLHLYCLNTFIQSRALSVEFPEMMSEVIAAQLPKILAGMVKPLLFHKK
T1 sequence (O75376 whole entry partner): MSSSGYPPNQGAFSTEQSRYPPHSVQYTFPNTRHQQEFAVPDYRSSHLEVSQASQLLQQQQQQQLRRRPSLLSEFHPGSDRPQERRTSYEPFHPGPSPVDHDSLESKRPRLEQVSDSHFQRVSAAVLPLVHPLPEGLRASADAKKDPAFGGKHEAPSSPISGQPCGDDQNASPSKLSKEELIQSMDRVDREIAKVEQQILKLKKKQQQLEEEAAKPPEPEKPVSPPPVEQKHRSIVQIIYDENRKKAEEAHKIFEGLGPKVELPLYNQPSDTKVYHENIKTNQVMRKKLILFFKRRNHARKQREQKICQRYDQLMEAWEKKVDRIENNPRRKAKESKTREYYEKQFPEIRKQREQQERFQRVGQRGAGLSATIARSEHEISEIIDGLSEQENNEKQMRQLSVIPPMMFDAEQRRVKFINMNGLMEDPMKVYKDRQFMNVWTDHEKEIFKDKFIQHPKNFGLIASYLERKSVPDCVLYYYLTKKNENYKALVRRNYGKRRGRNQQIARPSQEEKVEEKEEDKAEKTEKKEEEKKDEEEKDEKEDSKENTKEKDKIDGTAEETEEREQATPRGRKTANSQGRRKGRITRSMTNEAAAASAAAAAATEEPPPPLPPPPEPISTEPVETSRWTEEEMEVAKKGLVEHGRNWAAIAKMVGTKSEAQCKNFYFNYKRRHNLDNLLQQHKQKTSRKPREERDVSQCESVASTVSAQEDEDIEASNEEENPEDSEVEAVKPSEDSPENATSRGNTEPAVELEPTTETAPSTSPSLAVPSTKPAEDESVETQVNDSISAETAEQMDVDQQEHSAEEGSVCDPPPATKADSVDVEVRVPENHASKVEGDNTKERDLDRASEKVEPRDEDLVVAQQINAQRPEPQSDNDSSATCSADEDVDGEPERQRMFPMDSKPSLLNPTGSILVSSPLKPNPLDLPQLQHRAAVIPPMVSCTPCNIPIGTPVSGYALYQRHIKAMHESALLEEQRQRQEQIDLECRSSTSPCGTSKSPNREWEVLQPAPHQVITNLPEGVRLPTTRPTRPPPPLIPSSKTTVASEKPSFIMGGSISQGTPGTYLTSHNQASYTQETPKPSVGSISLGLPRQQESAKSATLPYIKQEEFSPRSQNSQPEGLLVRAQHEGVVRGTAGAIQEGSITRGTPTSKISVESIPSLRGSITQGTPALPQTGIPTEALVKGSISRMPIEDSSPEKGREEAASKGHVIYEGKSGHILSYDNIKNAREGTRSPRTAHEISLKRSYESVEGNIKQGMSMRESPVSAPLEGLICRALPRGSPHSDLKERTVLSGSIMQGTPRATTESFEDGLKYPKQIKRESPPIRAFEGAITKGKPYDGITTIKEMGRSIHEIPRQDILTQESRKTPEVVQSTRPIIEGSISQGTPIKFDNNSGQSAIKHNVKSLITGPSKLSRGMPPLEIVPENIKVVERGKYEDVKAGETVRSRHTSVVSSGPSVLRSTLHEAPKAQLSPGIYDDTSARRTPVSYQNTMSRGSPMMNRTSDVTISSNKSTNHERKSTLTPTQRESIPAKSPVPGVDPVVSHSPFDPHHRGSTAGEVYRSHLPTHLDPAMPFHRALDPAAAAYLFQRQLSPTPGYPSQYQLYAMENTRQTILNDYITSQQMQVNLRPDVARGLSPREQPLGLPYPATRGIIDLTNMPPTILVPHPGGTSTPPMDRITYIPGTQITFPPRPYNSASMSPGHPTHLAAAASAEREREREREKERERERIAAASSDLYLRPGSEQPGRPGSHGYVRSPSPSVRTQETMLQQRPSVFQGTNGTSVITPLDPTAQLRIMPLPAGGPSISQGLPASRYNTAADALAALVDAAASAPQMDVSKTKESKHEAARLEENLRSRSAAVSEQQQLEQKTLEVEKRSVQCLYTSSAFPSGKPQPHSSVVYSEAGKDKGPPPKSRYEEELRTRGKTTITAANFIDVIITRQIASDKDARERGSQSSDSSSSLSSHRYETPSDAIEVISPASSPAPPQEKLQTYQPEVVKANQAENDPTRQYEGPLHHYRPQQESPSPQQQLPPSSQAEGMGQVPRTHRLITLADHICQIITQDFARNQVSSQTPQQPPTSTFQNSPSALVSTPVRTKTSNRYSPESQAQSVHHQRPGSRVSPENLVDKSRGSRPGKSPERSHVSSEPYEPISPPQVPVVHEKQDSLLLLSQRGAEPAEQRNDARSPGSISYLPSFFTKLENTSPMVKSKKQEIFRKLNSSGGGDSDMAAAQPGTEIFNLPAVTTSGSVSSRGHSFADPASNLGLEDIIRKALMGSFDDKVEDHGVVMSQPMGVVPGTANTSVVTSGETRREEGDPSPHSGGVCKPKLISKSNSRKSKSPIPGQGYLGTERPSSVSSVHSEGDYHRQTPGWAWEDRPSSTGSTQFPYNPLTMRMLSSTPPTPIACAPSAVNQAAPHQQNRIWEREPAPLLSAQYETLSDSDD

Row | Compound | Arrest in Go/G1 (T47D cells) | Score 2 for PR-agonistic activity [1] | Score 2 for PR-antagonistic activity [1] | Number of ovulations vs. number of inseminated females (cycling guinea pigs; 3.0 mg/animal/day s.c.) | Number of ovulations vs. number of inseminated females (cycling guinea pigs; 10.0 mg/animal/day s.c.) | also measured
1 | COC[C@]1(OC)CC[C@H]2[C@@H]3CCC4=CC(=O)CCC4=C3[C@@H](c3ccc(/C=N/O)cc3)C[C@@]21C [Asoprisnil, reference compound] | ↑ | ~ 0.2 mg/animal/day s.c. | ~ 0.3 mg/animal/day s.c. | – | – | efficacy relative to Ulipristal acetate, NCoR interaction (PR-B – NCoR): 56%; induction of PR interaction with NCoR (PR-B – NCoR): limited ability to induce progesterone receptor interaction with NCoR; Quotient between antagonistic and agonistic action ([1]; McPhail score 2 doses): ~ 1.5; IC50 (GR): 1230 nM
2 | C[C@]12C[C@H](c3ccc(-n4ccnc4)cc3)C3=C4CCC(=O)C=C4CCC3C1CC[C@@]2(O)C(F)(F)C(F)(F)F (stereo partly shown) [EC317] | ↑ | – | – | 0/6 | 0/6 | Activation of Cyclin D1 promotor (Cyclin D1 promotor): unclear*; Number of ovulations vs. number of inseminated females (cycling guinea pigs; 0.1 mg/animal/day s.c.): 2/3; Number of ovulations vs. number of inseminated females (cycling guinea pigs; 0.3 mg/animal/day s.c.): 3/3; Number of ovulations vs. number of inseminated females (cycling guinea pigs; 1.0 mg/animal/day s.c.): 0/3
3 | CC#C[C@]1(O)CC[C@H]2[C@@H]3CCC4=CC(=O)CCC4=C3[C@@H](c3ccc(N(C)C)cc3)C[C@@]21C [Mifepristone, reference compound] | ↑ | – | – | 2/5 | 0/3 | Number of ovulations vs. number of inseminated females (cycling guinea pigs; 1.0 mg/animal/day s.c.): 4/5
4 | CC(=O)[C@H]1CC[C@H]2[C@@H]3CCC4=CC(=O)CC[C@]4(C)[C@H]3CC[C@]12C [Progesterone] | – | ~ 0.1 mg/animal/day s.c. | n.a. “pure” agonist | – | – | –
5 | CCC(=O)[C@@]1(C)CC[C@H]2[C@@H]3CCC4=CC(=O)CCC4=C3CC[C@@]21C [Promegestone, reference compound] | ↓ | – | – | – | – | induction of PR interaction with NCoR (PR-B – NCoR): does not induce NCoR interaction
6 | C[C@]12C[C@H](c3ccc(S(C)(=O)=O)cc3)C3=C4CCC(=O)C=C4CC[C@H]3[C@@H]1CC[C@@]2(O)C(F)(F)C(F)(F)F [Vilaprisan, reference compound] | – | n.a.;”pure” antagonist | < 0.3 mg/animal/day s.c. | 0/5 | 0/4 | IC50 (GR): 629 nM
7 | Telapristone acetate [CDB 4124 Telapristone acetate, reference compound] | – | – | – | – | 1/3 | –
